# Data taken from patent publication US20230330093A1, “APPLICATION OF NITROGEN-CONTAINING SATURATED HETEROCYCLIC COMPOUND” (SHANGHAI PHARMACEUTICALS HOLDING CO., LTD., priority 2020, published 2023).
# Tested on: cynomolgus monkeys
# Assay: 4-week safety study: urinalysis
# Type: in vivo
# Conditions: male and female monkeys
# Method: For the monkey study, at quarantine period (twice, d01 and d02), day 14, day 28 and day 56, the following parameters were measured as shown in Table 20. (1) Hematological and coagulation index examination were performed using a Bayer ADVIA2120 (Germany) and a Sysmex CA-1500 (Japan). (2) The serum biochemical examination was assessed using a HITACHI 7080 automated analyzer (Japan) and an Easylyte PLUS electrolyte analyzer (MEDICA, America). (3) The 24-h pooled urine of each animal was collected by a tray under each cage. Urinalysis was carried out using Uritest-300 (China). (4) The 24-h pooled faeces of each monkey were collected by a tray under each cage. Fecal occult blood was detected. (5) ACCESS 2 Chemiluminescence immunoassay was used for myocardial troponin (TropI, non-GLP) test.
compound,measurement,value
COC(=O)NCCCn1nc([C@@H](C)N(C(=O)[C@H]2CNCCO2)C2CC2)c2ccc(C)nc21 [compound of Formula I],urinalysis parameters,No significant changes
